Several values for one entry are separate records, joined by “and”; a condition that tells them apart may be missing. Equal values may be shown once.
Tests used:
[1] = instrument: DT, single field, calibrated with Agilent tune mix (Agilent)
[2] = [M+H]+; instrument: TW; calibrated with polyalanine and drug standards
[3] = instrument: DT, single field, calibrated with ESI Low Concentration Tuning Mix (Agilent)

Row | Structure (SMILES) | collision cross section (N2) ([1]; [M+H]+) [Å²] | collision cross section (N2) ([1]; [M-H]-) | further results
1 | OC[C@H]1OC(O)[C@H](O)[C@@H](O)[C@H]1O (stereo partly drawn) [D-(+)-Galactose] | – | – | collision cross section (N2) ([1]; [M+Na]+): 142.1 Å²
2 | CC(=O)N[C@@H]1C(O)O[C@H](CO)[C@@H](O)[C@@H]1O (stereo partly drawn) [N-Acetylmannosamine] | – | – | collision cross section (N2) ([1]; [M+Na]+): 149.9 Å²
3 | NC(=NCCC[C@H](N)C(=O)O)N[C@@H](CC(=O)O)C(=O)O [Argininosuccinic acid] | 163.9 | – | collision cross section (N2) ([1]; [M+Na-2H]-): 159.57 Å²
4 | N[C@@H](CCCCNC(=O)CCCC[C@@H]1SC[C@@H]2NC(=O)N[C@@H]21)C(=O)O [Biocytin] | 186.8 | – | collision cross section (N2) ([1]; [M+Na-2H]-): 189.78 Å²
5 | CC(C)C[C@H](NC(=O)CN)C(=O)O [Glycyl-L-leucine] | 149.5 | 142.07 Å² | –
6 | Nc1nc(=O)c2c([nH]1)NCC(CNc1ccc(C(=O)N[C@@H](CCC(=O)O)C(=O)O)cc1)N2 (stereo partly drawn) [Tetrahydrofolate] | – | 195.36 Å² | –
7 | O=C(O)C(O)C(O)C(=O)O (stereo not drawn) [Tartaric acid] | – | 115.46 Å² | –
8 | O=C(O)[C@@H]1CCCCN1 [L-Pipecolic acid] | 127.4 | 126.71 Å² | –
9 | Nc1ccccc1C(=O)C[C@H](N)C(=O)O [L-Kynurenine] | 149.1 | – | –
10 | CCCCCCCCC(=O)O [Pelargonic acid] | – | 143.33 Å² | –
11 | CCCCCCCCCCCCCCCCC(=O)O [Heptadecanoic acid] | – | 170.78 Å² | –
12 | Cn1c(=O)[nH]c(=O)c2c1[nH]c(=O)n2C [3,7-Dimethyluric acid] | – | 133.95 Å² | –
13 | O=C(O)CC(Nc1ncnc2c1ncn2[C@@H]1O[C@H](COP(=O)(O)O)[C@@H](O)[C@H]1O)C(=O)O (stereo partly drawn) [Adenylsuccinic acid] | – | 183.19 Å² | collision cross section (N2) ([1]; [M+Na]+): 195.6 Å²
14 | Nc1nc(=O)c2nc([C@H](O)[C@H](O)CO)cnc2[nH]1 [D-Neopterin] | 157.1 | 150.31 Å² | –
15 | CC(=O)N[C@H]1C(OP(=O)(O)O)O[C@H](CO)[C@@H](O)[C@@H]1O (stereo partly drawn) [N-Acetylglucosamine 1-phosphate] | – | 156.42 Å² | collision cross section (N2) ([1]; [M+Na]+): 166.6 Å²
16 | Cn1cncc1C[C@H](N)C(=O)O [3-Methylhistidine] | 134.1 | 134.37 Å² | –
17 | Cc1ncc(C[n+]2csc(CCOP(=O)(O)O)c2C)c(N)n1 [Thiamine monophosphate] | 169.7 | – | –

Row | Structure (SMILES) | collision cross section (N2) ([1]; [M+H]+) [Å²] | collision cross section (N2) ([1]; [M-H]-) | further results
18 | C[n+]1cccc(C(=O)[O-])c1 [TRIGONELLINE] | – | – | collision cross section (N2) [2]: 122.4 Å²; collision cross section (N2) ([3]; [M+H]+): 124 Å²; collision cross section (N2) ([3]; [M+Na]+): 135.9 Å²
19 | O=C(O)C(=O)Cc1c[nH]c2ccccc12 [Indole-3-pyruvic acid] | – | 138.82 Å² | –
20 | O=C(O)CNC(=O)c1ccco1 [2-Furoylglycine] | – | 134.65 Å² | –
21 | Nc1ccc(C(=O)[O-])cc1 [4-Aminobenzoate] | 140.4 | – | –
22 | NCCc1ccc(O)cc1 [Tyramine] | – | 129.74 Å² | –
23 | O=C(O)CC[C@H](O)C(=O)O [(S)-2-Hydroxyglutarate] | – | 118.99 Å² and 119.14 Å² | –
24 | Cc1cc2nc[nH]c2cc1C [Dimethylbenzimidazole] | 129.9 | 127.73 Å² | –
25 | NC(=O)CC[C@H](NC(=O)Cc1ccccc1)C(=O)O [Alpha-N-Phenylacetyl-L-glutamine] | 158.7 | 162.82 Å² | –
26 | O=C(O)[C@H]1O[C@H](OP(=O)(O)OP(=O)(O)OC[C@H]2O[C@@H](n3ccc(=O)[nH]c3=O)[C@H](O)[C@@H]2O)[C@H](O)[C@@H](O)[C@@H]1O [Uridine 5'-diphosphoglucuronic acid] | – | – | collision cross section (N2) ([1]; [M+Na-2H]-): 201.6 Å²; collision cross section (N2) ([1]; [M+Na]+): 210.1 Å²
27 | CC(C)=CCC[C@@H](C)[C@H]1CC[C@H]2[C@@H]3CC=C4C[C@@H](O)CC[C@]4(C)[C@H]3CC[C@]12C [Desmosterol] | – | 210.05 Å² | collision cross section (N2) ([1]; [M+H-H2O]+): 199.4 Å²
28 | CC(=O)[C@@]1(O)CC[C@H]2[C@@H]3CCC4=CC(=O)CC[C@]4(C)[C@H]3CC[C@@]21C [17alpha-Hydroxyprogesterone] | 183.4 | 183.75 Å² | –
29 | Cn1c(=O)[nH]c(=O)c2[nH]cnc21 [3-Methylxanthine] | – | 124.48 Å² | –
30 | O=C(O)CCCCCC(=O)O [Pimelic acid] | – | 129.29 Å² | –
31 | CCC(=O)NCC(=O)O [Propionylglycine] | – | 126.93 Å² | –
32 | Cc1cc2nc3c(=O)[nH]c(=O)nc-3n(C[C@H](O)[C@H](O)[C@H](O)COP(=O)(O)OP(=O)(O)OC[C@H]3O[C@@H](n4cnc5c(N)ncnc54)[C@H](O)[C@@H]3O)c2cc1C [Flavin adenine dinucleotide] | 247.3 | – | –
33 | CN(C)C(N)=NCCC[C@H](N)C(=O)O [NG,NG-dimethyl-L-arginine] | 143.5 | – | –
